Measured values as given in US10125116B2, “Compounds and methods for treating mammalian gastrointestinal microbial infections” (Brandeis University, priority 2009, dated 2018).
Read-outs that look alike come from different tables or passages of the source.

Key:
[1] = tested on: HCT-8 cells; assay: fluorescent HCT-8 host cell growth assay; type: cell-based, human
Description: The differentiation of selective antiparasitic effects from those that are a secondary consequence of a host cell effect is a critical issue in drug discovery for intracellular parasites. Cytotoxicity assays commonly reflect plasma membrane integrity, and are a crude measure of host cell effects—it is conceivable that more subtle perturbations of host cell metabolism can have an adverse effect on parasite proliferation. Therefore we sought to develop a simple and inexpensive assay of host cell growth. The human ileocecal adenocarcinoma epithelial cell line, HCT-8, which is commonly used to maintain C. parvum infection in tissue culture, was engineered to constitutively express a green fluorescent protein (GFP). Growth of this cell line was monitored daily using a fluorescent plate reader. […] These experiments validate the use of the fluorescent HCT-8 cell growth assay.
HCT-8 cells were transfected with the pmaxGFP plasmid (Amaxa) using Lipofectamine (Invitrogen) following the manufactures instruction. Fluorescent lines were then selected and cloned using FACS. Confluent monolayers of pmaxGFP expressing cells were harvested from T75 flasks and passed through a 40 μm cell strainer. Cells were then seeded at 4000 cells per well in a volume of 200 μL into black, optical quality, thin bottom, 96-well plates (DB Falcon). All test compounds were diluted in DMSO to prepare a 200× working stock for each dilution. Appropriate wells were spiked with 1 μl such that the final concentration of DMSO was 0.5%. The fluorescence was read daily with a SpectraMax M22/M2e (Molecular Devices) plate reader (Ex 485, Em 530) for 6-7 days. The percent inhibition was calculated on a day within the exponential phase of growth.

[2] = tested on: T. gondii-CpIMPDH; assay: T. gondii-CpIMPDH fluorescence growth assay; type: cell-based, Toxoplasma gondii
[3] = biological target: CpIMPDH, HpIMPDH, BbIMPDH, SpIMPDH, EcIMPDH and TfIMPDH
[4] = tested on: T. gondii-ΔHXGPRT; assay: T. gondii-ΔHXGPRT fluorescence growth assay; type: cell-based; conditions: Toxoplasma gondii, read-out: EC50 T. gondii-ΔHXGPRT growth
[5] = tested on: wild-type T. gondii; assay: wild-type T. gondii fluorescence growth assay; type: cell-based; conditions: Toxoplasma gondii
[6] = tested on: primary human, mouse, rat, and dog lymphocytes; conditions: cited from earlier work
[7] = read-out: intrinsic Ki (adjusted for competition from the mobile flap), range over IMPDHs

SMILES | melting point | other results
CC(Oc1ccnc2ccccc12)c1cn(-c2ccc(C#N)c(Cl)c2)nn1 (centres unmarked) | 194 to 196 °C | 
C[C@@H](Oc1ccnc2ccccc12)c1cn(-c2ccc(C#N)c(Cl)c2)nn1 | 176 to 178 °C | 
C[C@H](Oc1ccnc2ccccc12)c1cn(-c2ccc(C#N)c(Cl)c2)nn1 | 176 to 178 °C | 
CC(Oc1ccc(Cl)c2ccccc12)c1cn(-c2ccc(Cl)cc2)nn1 (centres unmarked) [A82] |  | host cell (HCT-8) growth effect, in words [1]: do not inhibit host cell growth; selectivity for T. gondii-CpIMPDH parasite over wild-type T. gondii [2]: little selectivity
CC(Oc1ccnc2ccccc12)c1cn(-c2ccc(Cl)c(Cl)c2)nn1 (centres unmarked) [A90] |  | host cell (HCT-8) growth effect, in words [1]: do not inhibit host cell growth; selectivity for T. gondii-CpIMPDH parasite over wild-type T. gondii [2]: little selectivity
C[C@@H](Oc1ccnc2ccccc12)c1cn(-c2ccc(Cl)c(Cl)c2)nn1 [A105] |  | host cell (HCT-8) growth effect, in words [1]: do not inhibit host cell growth; selectivity for T. gondii-CpIMPDH parasite over wild-type T. gondii [2]: little selectivity
C[C@@H](Oc1cc[n+]([O-])c2ccccc12)c1cn(-c2ccc(Cl)cc2)nn1 [A110] |  | host cell (HCT-8) growth effect, in words [1]: negligible effects on host cell growth
Nc1ncnc2c1ncn2[C@@H]1O[C@H](COP(=O)(O)OP(=O)(O)O)[C@@H](O)[C@H]1O [ADP] |  | Ki [3, 7]: 200 to 9000 µM
CC(Oc1cccc2ccccc12)c1cn(-c2ccc(Cl)cc2)nn1 (centres unmarked) [Compound 1, 1-(4-chlorophenyl)-4-(1-(naphthalene-1-yloxy)ethyl)-1H-1,2,3-triazole] | 98 to 100 °C | 
CC(Oc1ccnc2ccccc12)c1cn(-c2ccc(Cl)cc2)nn1 (centres unmarked) [Compound 13, 4-(1-(1-(4-chlorophenyl)-1H-1,2,3-triazol-4-yl)ethoxy)quinoline] | 128 to 130 °C | 
CC(Oc1ccnc2ccccc12)c1cn(-c2ccc(Cl)c(Cl)c2)nn1 (centres unmarked) [Compound 14, 4-(1-(1-(3,4-dichlorophenyl)-1H-1,2,3-triazol-4-yl)ethoxy)quinoline] | 62 to 64 °C | 
CC(Oc1ccnc2ccccc12)c1cn(-c2ccc(C#N)cc2)nn1 (centres unmarked) [Compound 15, 4-(4-(1-(quinolin-4-yloxy)ethyl)-1H-1,2,3-triazol-1-yl)benzonitrile] | 176 to 178 °C | 
Clc1ccc(-n2cc(COc3ccnc4ccccc34)nn2)cc1 [Compound 17, 4-((1-(4-chlorophenyl)-1H-1,2,3-triazol-4-yl)methoxy)quinoline] | 230 to 232 °C | 
C[C@@H](Oc1cccc2ncccc12)c1cn(-c2ccc(Cl)cc2)nn1 [Compound 21, (R)-5-(1-(1-(4-chlorophenyl)-1H-1,2,3-triazol-4-yl)ethoxy)quinoline] | 94 to 96 °C | 
CC(Oc1cccc2c1ccc[n+]2[O-])c1cn(-c2ccc(Cl)cc2)nn1 (centres unmarked) [Compound 25, 5-(1-(1-(4-chlorophenyl)-1H-1,2,3-triazol-4-yl)ethoxy)quinoline 1-oxide] | 165 to 167 °C | 
CC(Oc1cc[n+]([O-])c2ccccc12)c1cn(-c2ccc(Cl)c(Cl)c2)nn1 (centres unmarked) [Compound 26, 4-(1-(1-(3,4-dichlorophenyl)-1H-1,2,3-triazol-4-yl)ethoxy)quinoline 1-oxide] | 216 to 218 °C | 
C[C@@H](Oc1ccnc2ccccc12)c1cn(-c2ccc(Cl)c(Cl)c2)nn1 [Compound 28, (R)-4-(1-(1-(3,4-dichlorophenyl)-1H-1,2,3-triazol-4-yl)ethoxy)quinoline] | 62 to 64 °C | 
C[C@H](Oc1ccnc2ccccc12)c1cn(-c2ccc(Cl)c(Cl)c2)nn1 [Compound 30, (S)-4-(1-(1-(3,4-dichlorophenyl)-1H-1,2,3-triazol-4-yl)ethoxy)quinoline] | 64 to 66 °C | 
C[C@@H](Oc1cccc2c1ccc[n+]2[O-])c1cn(-c2ccc(Cl)cc2)nn1 [Compound 32, (R)-5-(1-(1-(4-chlorophenyl)-1H-1,2,3-triazol-4-yl)ethoxy)quinoline 1-oxide] | 184 to 186 °C | 
CC(Oc1cccc2ccccc12)C(=O)Nc1ccc(Cl)cc1 (centres unmarked) [Compound 93, N-(4-chlorophenyl)-2-(1-naphthalenyloxy)propanamide] | 146 to 148 °C | 
O=C(Nc1ccc(Cl)cc1)C(Oc1cccc2ccccc12)c1ccccc1 (stereo not drawn) [Compound 102, N-(4-chlorophenyl)-α-(1-naphthalenyloxy)benzeneacetamide] | 176 to 178 °C | 
CC(Oc1ccnc2ccccc12)C(=O)Nc1ccc(Cl)cc1 (centres unmarked) [Compound 114, N-(4-chlorophenyl)-2-[[4-quinolinyl]oxy]propanamide] | 170 to 172 °C | 
CC(C)C(Oc1cccc2ccccc12)C(=O)Nc1ccc(Cl)cc1 (centres unmarked) [Compound 116, N-(4-chlorophenyl)-3-methyl-2-(1-naphthalenyloxy)butanamide] | 150 to 152 °C | 
O=C(Nc1ccc(Cl)cc1)C(Oc1cccc2ccccc12)C1CC1 (centres unmarked) [Compound 119, N-(4-chlorophenyl)-2-cyclopropyl-2-(1-naphthalenyloxy)acetamide] | 204 to 206 °C | 
COc1c(C)c2c(c(O)c1C/C=C(\C)CCC(=O)O)C(=O)OC2 [MPA, mycophenolic acid] |  | EC50 [4]: 0.29 µM; EC50 ([5]; media with xanthine (0.33 mM), read-out: EC50 wild-type T. gondii growth, xanthine supplemented): ≥ 78 µM; EC50 ([5]; read-out: EC50 wild-type T. gondii growth): 2.6 µM; EC50 ([2]; Toxoplasma gondii, read-out: EC50 T. gondii-CpIMPDH growth): > 65 µM
CCCC(=O)[O-].[Na+] [Sodium butyrate, reference compound] |  | host cell (HCT-8) growth effect, in words ([1]; human): inhibit HCT-8 growth in a dose-dependent manner
NC(=O)c1csc([C@@H]2O[C@H](CO)[C@@H](O)[C@H]2O)n1 [Tiazofurin, tiazofurin] |  | Ki ([3]; read-out: Ki (observed), range over prokaryotic IMPDHs): 1000 to 69000 µM; Ki [3, 7]: 300 to 700 µM
COc1cc(NC(=O)Nc2cccc(CNC(=O)O[C@H]3CCOC3)c2)ccc1-c1cnco1 [merimepodib] |  | concentration inhibiting lymphocyte proliferation [6]: ~100 nM
